We go through ten compounds from patent US11298569B2 (priority 2016, dated 2022).

Series [1] addresses T1, Panx1 (Mus musculus, UniProt Q9JIP4).
T1 construct: endogenous in cells; host or cells: BV-2 microglia
In kind it is cell-based. As to conditions: for naloxone potentiation of Panx1 activation (YO-PRO-3 dye uptake): morphine-treated BV-2 microglial cultures, 30 minutes post-BzATP; for BzATP-evoked YO-PRO-1 uptake: morphine-treated microglia, BzATP 150 μM, drug 10 μM. As to the method:
(§1) BV2 microglia were maintained in DMEM media (Gibco) containing 10% FBS and 1% Pen-Strep at 37° C. with 5% CO2.
Following a 5-min baseline recording, cells were stimulated with BzATP (150 μM, Sigma) and dye-uptake was recorded for 30 minutes. Cell viability was assessed immediately after 30 minute recording by application of ionomycin (1 μM, Sigma). YO-PRO-1 dye fluorescent emission (491/509) or YO-PRO-3 dye fluorescent emission (612/631) was detected at 37° C. using a FilterMax F5 plate reader (Molecular Devices). Drugs used include ^10panx, ^scrpanx, and naloxone, all of which were used at 10 μM. Drugs were bath applied in YO-PRO-1 dye and incubated at 37° C. for 10 minutes prior to baseline recording. Fluorescent emission at 30 minutes post BzATP application was calculated as percent change from baseline. Representative images of BV-2 YO-PRO-1 dye uptake were taken at room temperature using an inverted microscope (Nikon Eclipse Ti C1S1 Spectral Confocal) with images take at 5 minute intervals for 30 minutes using EasyRatioPro software (PTI). To assess Panx1 function in Cx3cr1::Panx1^flx/flx adult microglia, neuron-glia mixture culture was isolated from adult mice treated with tamoxifen or vehicle for 5 days, then plated in DMEM containing 10% FBS and 1% Pen-Strep and incubated overnight at 37° C. with 5% CO2. Cells were washed and incubated with DAPI (1:10,000) for 10 minutes, and then incubated in YO-PRO-3 dye. Microglia were identified from mixed adult neuronal-glia culture by endogenous expression of eYFP. Fluorescence of individual eYFP positive microglia was recorded for a 5 minute baseline period and then for 30 minutes post BzATP stimulation (300 μM). Fluorescent emission at 30 minutes was calculated and as percent change from baseline.

The target in series [2] is T1, Panx1. In kind it is cell-based. Conditions: for ATP release: morphine-treated cultured microglia stimulated with naloxone. The protocol:
as §1
ATP level were detected using bioluminescence by combining samples with recombinant firefly luciferase and its substrate D-luciferin (ATP Determination Kit, Life Technologies). The ATPase inhibitor (ARL67156, 1 μM, Sigma) was added to the ECS or ACSF to decrease breakdown of ATP, and samples were incubated in medium for 30 minutes prior to naloxone stimulation to reduce mechanically-induced ATP release. Samples were stimulated with naloxone (10 μM) for 30 minutes, at which point the supernatant was collected. Samples were read immediately after collection using a FilterMax F5 plate reader at 28° C. For experiments for BV-2 microglial cultures, cells were incubated in ^10panx (10 μM), ^scrpanx (10 μM), probenecid (1 mM), mefloquine (40 μM) or ECS for 10 minutes prior to naloxone stimulation. Final ATP measurement was expressed relative to control samples (saline treated and ECS stimulated) from the same plate. For ATP release in spinal cord slices, tamoxifen or vehicle treated Cx3cr1::Panx1^flx/flx mice were perfused with ice-cold oxygenated sucrose-substituted ACSF, and the spinal cord isolated by hydraulic extrusion. The lumbar segment of the spinal cord was sliced into 300 μm sections, and incubated in oxygenated 37° C. ACSF for 1 hour. Spinal cord slices were then transferred to room temperature oxygenated ACSF and stimulated with naloxone. For quantification, ATP release was normalized to total protein of each sample.

In another series the test system is morphine-dependent rats. The series can be described thus: Naloxone-precipitated morphine withdrawal behaviours in rats. The series is classed as in vivo, rat. As to conditions: for morphine withdrawal: morphine-dependent rats. The protocol: (§2) Control rats and mice received saline and were challenged with naloxone on day 5. […] Jumping, teeth chattering, wet-dog shakes, headshakes, and grooming behaviors were evaluated at 5-min intervals for a total test period of 30 minutes and a standardized score of 0 to 3 was assigned to each behavior. Allodynia, piloerection, salivation, ejaculation, and tremorsitwitchina were also evaluated, with one point given to the presence of the behavior during each 5-min interval. All signs were counted and compiled to yield a cumulative withdrawal score. Rats and mice were weighed before and after naloxone challenge to calculate weight loss. In all behavioral studies, experimenters were blind to the drug treatments and genetic profile of rats and mice.
(§3) All control animals received intrathecal saline.
Both mefloquine and probenecid were reconstituted in β-cyclodextrin (Sigma), and control animals received systemic β-cyclodextrin.

Series [3] concerns Cx3cr1-cre::Panx1^flx/flx mice. Briefly: Naloxone-precipitated morphine withdrawal behaviours in mice. The series is classed as in vivo, mouse. As to conditions: for morphine withdrawal: morphine-dependent Panx1-expressing mice, 15 minutes prior to naloxone. The protocol: as §2, §3
Series [4] deals with Panx1. Briefly: Western blot of total Panx1 protein in rat primary microglia cultures. The series is classed as cell-based. Conditions: morphine for 5-days. The protocol:
(§4) Rat spinal cord tissue was rapidly dissected and homogenized in RIPA buffer containing 20 mM TrisHCl (pH 7.5), 150 mM NaCl, and 0.5% Tween-20. Cultured microglia were harvested in 150 μL lysis buffer containing 50 mM TrisHCl, 150 mM NaCl, 10 mM EDTA, 0.1% Triton-X, and 5% Glycerol. Both RIPA and lysis buffers contained protease inhibitors (Sigma) and phosphatase inhibitors (GBiosciences). Total protein was measured using a BioRad RC DC Protein Assay Kit (BioRad) or Pierce BCA Protein Assay Kit (Thermo Scientific). Samples were heated at 95° C. for 5-min in loading buffer (350 mM Tris, 30% glycerol, 1.6% SDS, 1.2% bromophenol blue, 6% β-mercaptoethanol) then electrophoresed on a precast SDS gel (4-12% Tris-HCl, BioRad) and transferred onto a nitrocellulose membrane. […] Membranes were washed and incubated for 2 h at 20-25° C. in fluorophore-conjugated secondary antibodies (anti-rabbit and anti-mouse conjugated IR Dyes 1:5000, Mandel Scientific; or Fluorescent TrueBlot anti-rabbit IgG Dylight 1:1000, Rockland) then quantified by direct detection of secondary antibody fluorescence at 680 and 800 nm (LICOR Odyssey CLx). Band intensity was quantified using Image J, normalized to β-actin and expressed relative to control samples. […]

Series [5] deals with Panx1. The series can be described thus: Western blot of total Panx1 protein in BV-2 microglial cell line. In kind it is cell-based. As to conditions: morphine for 5-days. As to the method: as §4
Series [6] concerns CD11b-positive cells in the lumbar spinal cords. Conditions: mouse.
Experimental: Mice with microglial specific deletion of Panx1 were generated using a Cre-loxP system. […] Progeny genotype was screened using PCR, and homozygous Panx1^flx/flx and Cx3cr1-cre mice were bred and backcrossed for 8 generations to yield the conditional Cx3cr1::Panx1^flx/flx knock-out mice. To induce Cre recombination, mice were injected intraperitoneally with 1 mg per day tamoxifen (Sigma) for 5 days. Wild-type mice were littermate mice that received vehicle injections (sunflower oil with 10% ethanol) for 5 days, while tamoxifen-related effects were controlled for using Panx1^flx/flx littermate mice that received 5 days of tamoxifen injections.

Where two headings read alike, the source gives them in different places.

T1 sequence (Q9JIP4 whole entry): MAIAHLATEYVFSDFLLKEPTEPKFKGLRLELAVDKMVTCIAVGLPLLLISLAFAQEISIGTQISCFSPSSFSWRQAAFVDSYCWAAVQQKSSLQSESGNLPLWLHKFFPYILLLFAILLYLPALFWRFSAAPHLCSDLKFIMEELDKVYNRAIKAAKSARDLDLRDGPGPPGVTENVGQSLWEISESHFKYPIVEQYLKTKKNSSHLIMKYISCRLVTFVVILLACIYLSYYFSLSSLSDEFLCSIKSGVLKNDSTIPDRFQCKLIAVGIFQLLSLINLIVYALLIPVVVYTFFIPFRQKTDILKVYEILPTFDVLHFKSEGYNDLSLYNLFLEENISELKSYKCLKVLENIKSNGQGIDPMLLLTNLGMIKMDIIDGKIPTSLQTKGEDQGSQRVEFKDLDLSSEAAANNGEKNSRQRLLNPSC

Turning to `OC(c1cc(C(F)(F)F)nc2c(C(F)(F)F)cccc12)C1CCCCN1` (stereo not shown) [mefloquine], the “naloxone potentiation of Panx1 activation (YO-PRO-3 dye uptake)” value on Panx1 [1] was “blocked”. Also, at Panx1 [2] (mefloquine 40 μM), the ATP release result is recorded as “suppressed”. For the same compound, in the series on morphine-dependent rats (systemic 45 mg/kg i.p. 1-hour prior to naloxone challenge), the morphine withdrawal entry is recorded as “significantly ameliorated”.
For FSVYWAQADR (scrPanx) [^scrpanx], in the series with Panx1 [1], the “BzATP-evoked YO-PRO-1 uptake” value is “unaffected”.
Take `CCCN(CCC)S(=O)(=O)c1ccc(C(=O)O)cc1` [probenecid]: the “naloxone potentiation of Panx1 activation (YO-PRO-3 dye uptake)” value at Panx1 [1] is “blocked”. For the same compound, the ATP release entry on Panx1 [2] (probenecid 1 mM) is recorded as “suppressed”. Besides, the morphine withdrawal entry in the series with morphine-dependent rats (systemic 50 mg/kg i.p. 1-hour prior to naloxone challenge) is given as “significantly ameliorated”.
`C=CCN1CC[C@]23c4c5ccc(O)c4O[C@H]2C(=O)CC[C@@]3(O)[C@H]1C5` [naloxone]: the “BzATP-evoked YO-PRO-1 uptake” value at Panx1 [1] is given as “further potentiated”. Moreover, on Panx1 [2] (naloxone applied to microglia in culture (10 μM, 30 minutes)), the “ATP in microglial supernatant” value is on record as “evoked the release of ATP”.
As for apyrase, the morphine withdrawal entry in series [3] (intrathecal 10 units) was “striking reduction in withdrawal”.
Take WRQAAFVDSY (10panx) [^10panx]: the naloxone-precipitated morphine withdrawal result was “significantly attenuated” in series [3] (Panx1-expressing mice, intrathecal 10 μg before naloxone challenge) and “did not further reduce withdrawal” in series [3] (mice lacking microglial Panx1, intrathecal 10 μg). For the same compound, the “BzATP-evoked YO-PRO-1 uptake” value with Panx1 [1] was “blocked”. Also, in the series with Panx1 [2] (cultured microglia, ^10panx 10 μM for 10 minutes prior to naloxone), the “naloxone-evoked release of ATP” value is reported as “blocked”. In addition, the withdrawal behaviours result in the series with morphine-dependent rats (rats after 5-days of morphine, intrathecal 10 μg, 60-minutes prior to naloxone challenge) is reported as “significantly attenuated”.
For the compound `CN1CC[C@]23c4c5ccc(O)c4O[C@H]2[C@@H](O)C=C[C@H]3[C@H]1C5` [morphine], the “total Panx1 protein levels” value in the series with Panx1 [4] and in the series with Panx1 [5] was “marked increase” throughout.
For `CC/C(=C(\c1ccccc1)c1ccc(OCCN(C)C)cc1)c1ccccc1` [tamoxifen], the morphine withdrawal responses result in series [3] (tamoxifen given to Panx1^loxp/loxp mice without inducible Cre-recombinase) is “does not affect morphine withdrawal”. The “recombination in Cre^ER reporter eYFP / CD11b-positive cells” value in series [6] is given as 95±3.1%.
As for `Nc1ncnc2c1ncn2[C@@H]1O[C@H](COP(=O)(O)OP(=O)(O)OP(O)(O)=S)[C@@H](O)[C@H]1O` [ATPγS], the withdrawal behaviors entry is “restored a spectrum of withdrawal behaviors” in series [3] (morphine-treated Panx1-deficient mice, intrathecal 100 μM together with naloxone challenge) and “not observed” in series [3] (saline-treated Panx1-deficient mice, intrathecal 100 μM).
Regarding `CCN(CC)c1ncnc2c1ncn2[C@@H]1O[C@H](COP(=O)(O)OP(=O)(O)C(Br)(Br)P(=O)(O)O)[C@@H](O)[C@H]1O` [ARL67156], the morphine withdrawal result in series [3] (intrathecal 10 nmoles) is recorded as “exacerbated”.
